1 compound from patent US8952024B2, “Herbicidal pyrimidone derivatives” (E I du Pont de Nemours and Company, priority 2009, dated 2015) can be followed below.

One assay has as its system canarygrass (Phalaris minor). Put plainly: Test B postemergence plant response. Type of assay: in vivo. Conditions: Postemergence, 31 g ai/ha; 0 to 100 scale (0 no effect, 100 complete control). A digest of the protocol: (§1)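 Visual ratings from 0 (no effect) to 100 (complete control), made against controls 13–15 days after treatment, kept in a greenhouse. Compounds were applied postemergence to potted plants at the 1- to 4-leaf stage (2–18 cm).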
`COCCn1c(-c2ccsc2)ncc(C(=O)C2=C(O)C3CCC(C3)C2=O)c1=O` (stereo not shown) [Compound 228]: the “Plant response rating, Canarygrass” value amounted to 0.

The same assay, now with this note: Postemergence, 62 g ai/ha; scale 0 to 100 (0 no effect, 100 complete control).
For the compound `COCCn1c(-c2ccsc2)ncc(C(=O)C2=C(O)C3CCC(C3)C2=O)c1=O` (stereo not shown) [Compound 228], the “Plant response rating, Canarygrass” value turned out to be 0.

The assay is the same for the next values; noted with them: Postemergence, 125 g ai/ha; scale 0 to 100 (0 no effect, 100 complete control).
Take `COCCn1c(-c2ccsc2)ncc(C(=O)C2=C(O)C3CCC(C3)C2=O)c1=O` (stereo not shown) [Compound 228]: the “Plant response rating, Canarygrass” value is given as 5.

Still in this assay, the particulars now being: Postemergence, 250 g ai/ha; scale 0 to 100 (0 no effect, 100 complete control); 13 to 15 days.
`COCCn1c(-c2ccsc2)ncc(C(=O)C2=C(O)C3CCC(C3)C2=O)c1=O` (stereo not shown) [Compound 228]: the “Plant response rating, Canarygrass” value is recorded as 10.

The test system of a further assay is windgrass (Apera spica-venti). Put plainly: Test B postemergence plant response. Type of assay: in vivo. Conditions: Postemergence, 31 g ai/ha; 0 to 100 scale (0 no effect, 100 complete control). A digest of the protocol: as §1
Turning to `COCCn1c(-c2ccsc2)ncc(C(=O)C2=C(O)C3CCC(C3)C2=O)c1=O` (stereo not shown) [Compound 228], the “Plant response rating, Windgrass” value was found to be 5.

The assay is the same for the next values; noted with them: Postemergence, 62 g ai/ha; scale 0 to 100 (0 no effect, 100 complete control).
Regarding `COCCn1c(-c2ccsc2)ncc(C(=O)C2=C(O)C3CCC(C3)C2=O)c1=O` (stereo not shown) [Compound 228], the “Plant response rating, Windgrass” value worked out at 50.

The assay is the same for the next values; noted with them: Postemergence, 250 g ai/ha; scale 0 to 100 (0 no effect, 100 complete control); 13 to 15 days.
As for `COCCn1c(-c2ccsc2)ncc(C(=O)C2=C(O)C3CCC(C3)C2=O)c1=O` (stereo not shown) [Compound 228], the “Plant response rating, Windgrass” value came to 90.

A further assay has as its system chickweed (Stellaria media). As to the kind of experiment: Test B postemergence plant response. Type of assay: in vivo. Particulars: Postemergence, 31 g ai/ha; 0 to 100 scale (0 no effect, 100 complete control). Put shortly: as §1
Consider `COCCn1c(-c2ccsc2)ncc(C(=O)C2=C(O)C3CCC(C3)C2=O)c1=O` (stereo not shown) [Compound 228], for which the “Plant response rating, Chickweed” value is on record as 98.

Staying with this assay, now noted: Postemergence, 62 g ai/ha; scale 0 to 100 (0 no effect, 100 complete control).
As for `COCCn1c(-c2ccsc2)ncc(C(=O)C2=C(O)C3CCC(C3)C2=O)c1=O` (stereo not shown) [Compound 228], the “Plant response rating, Chickweed” value is on record as 100.

The assay is the same for the next values; noted with them: Postemergence, 125 g ai/ha; scale 0 to 100 (0 no effect, 100 complete control).
Take `COCCn1c(-c2ccsc2)ncc(C(=O)C2=C(O)C3CCC(C3)C2=O)c1=O` (stereo not shown) [Compound 228]: the “Plant response rating, Chickweed” value amounted to 100.

The assay is the same for the next values; noted with them: Postemergence, 250 g ai/ha; scale 0 to 100 (0 no effect, 100 complete control); 13 to 15 days.
Turning to `COCCn1c(-c2ccsc2)ncc(C(=O)C2=C(O)C3CCC(C3)C2=O)c1=O` (stereo not shown) [Compound 228], the “Plant response rating, Chickweed” value is 100.

A further assay concerns velvetleaf (Abutilon theophrasti). Put plainly: Test B pre-/postemergence plant response. Type of assay: in vivo. Conditions: Postemergence, 31 g ai/ha; 0 to 100 scale (0 no effect, 100 complete control). Put shortly: (§2)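 Plants treated either at seeding (loam/sand soil) or postemergence at 2 to 18 cm height, using a surfactant-containing non-phytotoxic solvent formulation. Evaluation was visual after 13 to 15 days, 0 to 100 scale relative to controls.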
For the compound `COCCn1c(-c2ccsc2)ncc(C(=O)C2=C(O)C3CCC(C3)C2=O)c1=O` (stereo not shown) [Compound 228], the “Plant response rating, Velvetleaf” value amounted to 80.

Still in this assay, the particulars now being: Postemergence, 62 g ai/ha; scale 0 to 100 (0 no effect, 100 complete control).
`COCCn1c(-c2ccsc2)ncc(C(=O)C2=C(O)C3CCC(C3)C2=O)c1=O` (stereo not shown) [Compound 228]: the “Plant response rating, Velvetleaf” value is 100.

Still in this assay, the particulars now being: Postemergence, 250 g ai/ha; scale 0 to 100 (0 no effect, 100 complete control); 13 to 15 days.
Consider `COCCn1c(-c2ccsc2)ncc(C(=O)C2=C(O)C3CCC(C3)C2=O)c1=O` (stereo not shown) [Compound 228], for which the “Plant response rating, Velvetleaf” value came to 100.

In the next assay the test system is johnsongrass (Sorghum halepense). Put plainly: Test B pre-/postemergence plant response. The assay is classed as in vivo. Particulars: Postemergence, 31 g ai/ha; 0 to 100 scale (0 no effect, 100 complete control). Put shortly: as §2
Consider `COCCn1c(-c2ccsc2)ncc(C(=O)C2=C(O)C3CCC(C3)C2=O)c1=O` (stereo not shown) [Compound 228], for which the “Plant response rating, Johnsongrass” value stood at 75.

The same assay, now with this note: Postemergence, 62 g ai/ha; scale 0 to 100 (0 no effect, 100 complete control).
For the compound `COCCn1c(-c2ccsc2)ncc(C(=O)C2=C(O)C3CCC(C3)C2=O)c1=O` (stereo not shown) [Compound 228], the “Plant response rating, Johnsongrass” value was 75.

The same assay, now with this note: Postemergence, 125 g ai/ha; scale 0 to 100 (0 no effect, 100 complete control).
For `COCCn1c(-c2ccsc2)ncc(C(=O)C2=C(O)C3CCC(C3)C2=O)c1=O` (stereo not shown) [Compound 228], the “Plant response rating, Johnsongrass” value is on record as 95.

The assay is the same for the next values; noted with them: Postemergence, 250 g ai/ha; scale 0 to 100 (0 no effect, 100 complete control); 13 to 15 days.
As for `COCCn1c(-c2ccsc2)ncc(C(=O)C2=C(O)C3CCC(C3)C2=O)c1=O` (stereo not shown) [Compound 228], the “Plant response rating, Johnsongrass” value is 100.

The subject of another assay is cocklebur (Xanthium strumarium). Put plainly: Test B pre-/postemergence plant response. The assay is classed as in vivo. Conditions: Postemergence, 31 g ai/ha; 0 to 100 scale (0 no effect, 100 complete control). A digest of the protocol:
as §2
On to `COCCn1c(-c2ccsc2)ncc(C(=O)C2=C(O)C3CCC(C3)C2=O)c1=O` (stereo not shown) [Compound 228], for which the “Plant response rating, Cocklebur” value is given as 98.

The same assay, now with this note: Postemergence, 62 g ai/ha; scale 0 to 100 (0 no effect, 100 complete control).
For the compound `COCCn1c(-c2ccsc2)ncc(C(=O)C2=C(O)C3CCC(C3)C2=O)c1=O` (stereo not shown) [Compound 228], the “Plant response rating, Cocklebur” value is listed as 98.

Staying with this assay, now noted: Postemergence, 125 g ai/ha; scale 0 to 100 (0 no effect, 100 complete control).
As for `COCCn1c(-c2ccsc2)ncc(C(=O)C2=C(O)C3CCC(C3)C2=O)c1=O` (stereo not shown) [Compound 228], the “Plant response rating, Cocklebur” value was 100.

The assay is the same for the next values; noted with them: Postemergence, 250 g ai/ha; scale 0 to 100 (0 no effect, 100 complete control); 13 to 15 days.
Regarding `COCCn1c(-c2ccsc2)ncc(C(=O)C2=C(O)C3CCC(C3)C2=O)c1=O` (stereo not shown) [Compound 228], the “Plant response rating, Cocklebur” value was 100.
